Earlier results, collected in patent publication US20240024337A1, “INTERACTION OF SARS-COV-2 PROTEINS WITH MOLECULAR AND […] […] HOST CELLS AND FORMULATIONS TO TREAT COVID-19” (AKSEERA PHARMA CORP., priority 2020, published 2024).

Tested on: HT22 hippocampal neurons
Details: 5 μM; oxygen-glucose deprivation

C=C(C)[C@@H]1CCC(C)=C[C@H]1c1c(O)cc(CCCCC)cc1O [Cannabidiol, 2-[(1R,6R)-3-Methyl-6-(1-methylethenyl)-2-cyclohexen-1-yl]-5-pentyl-1,3-benzenediol]
apoptosis and oxidative stress: significantly attenuated
